Where two headings read alike, the source gives them in different places.
Assays:
Assay type in all cases: cell-based
Hemophilus influenzae = assay: Agar-dilution MIC
Clostridium difficile = conditions: Table 16
Excerpt: The A41030 antibiotic factors A, B, C, D, E, F, and G, are also active against a number of strains of Clostridium difficile, as determined by the agar-dilution method.

Clostridium septicum = assay: Agar-dilution MIC (anaerobes); conditions: Table 14; Clostridium septicum 1128
Streptococcus pyogenes = assay: Agar-dilution MIC
Excerpt: (§1) The agar-dilution procedure described by the International Collaborative study (ICS) group was used to determine the minimum inhibitory concentrations (MIC's).

[1] = test system: Streptococcus sp. (Group D); assay: Agar-dilution MIC
Excerpt: as §1

[2] = test system: Fusobacterium necrophorum; assay: Agar-dilution MIC (anaerobes); conditions: Table 14; Fusobacterium necrophorum 6054A
Fusobacterium symbiosum = assay: Agar-dilution MIC (anaerobes); conditions: Table 14; Fusobacterium symbiosum 1470

Measured: MIC

NC1C(=O)NC2Cc3ccc(c(Cl)c3)Oc3cc4cc(c3O)Oc3ccc(cc3Cl)C(O)C3NC(=O)C(NC(=O)C4NC(=O)C(NC2=O)c2cc(O)cc(c2)Oc2cc1ccc2O)c1cc(Cl)c(O)c(c1)-c1c(O)cc(O)cc1C(C(=O)O)NC3=O (stereo not shown) [A41030 factor A]
0.5 µg/mL: Streptococcus pyogenes; Table 11, S. pyogenes 12344 | Streptococcus pyogenes; Table 17, 24 hours, Streptococcus pyogenes C203 | [1]; Table 18, 24 hours, Streptococcus sp. Group D 2041 | [1]; Table 18, 24 hours, Streptococcus sp. Group D 2058 | [1]; Table 18, 24 hours, Streptococcus sp. Group D 9960
2 µg/mL: Hemophilus influenzae; Table 17, 24 hours, Haemophilus influenzae 251 | Hemophilus influenzae; Table 18, 24 hours, Haemophilus influenzae 312 | Hemophilus influenzae; Table 18, 24 hours, Haemophilus influenzae 4842 | Hemophilus influenzae; Table 18, 24 hours, Haemophilus influenzae Bond | Hemophilus influenzae; Table 18, 24 hours, Haemophilus influenzae Mx366 | Hemophilus influenzae; Table 18, 24 hours, Haemophilus influenzae Mx371 | Clostridium septicum | [1]; Table 17, 24 hours, Streptococcus sp. Group D 9960
4 µg/mL: Hemophilus influenzae; Table 18, 24 hours, Haemophilus influenzae 76 | Hemophilus influenzae; Table 18, 24 hours, Haemophilus influenzae 16836 | Hemophilus influenzae; Table 18, 24 hours, Haemophilus influenzae C.L.
0.25 µg/mL: Streptococcus pyogenes; Table 11, S. pyogenes 9943 | Streptococcus pyogenes; Table 11, S. pyogenes 10389 | Streptococcus pyogenes; Table 11, S. pyogenes C203 | Streptococcus pyogenes; Table 11, S. pyogenes M-6517 | Streptococcus pyogenes; Table 18, 24 hours, Streptococcus pyogenes C203 | [1]; Table 11, Streptococcus sp. (Group D) 238 | [1]; Table 11, Streptococcus sp. (Group D) 282 | [1]; Table 11, Streptococcus sp. (Group D) 9901 | [1]; Table 11, Streptococcus sp. (Group D) 12253F | [1]; Table 11, Streptococcus sp. (Group D) Guze | [1]; Table 18, 24 hours, Streptococcus sp. Group D 8043 | [1]; Table 18, 24 hours, Streptococcus sp. Group D 12253F | [1]; Table 18, 24 hours, Streptococcus sp. Group D Mx161 | [1]; Table 18, 24 hours, Streptococcus sp. Group D X66
1.0 µg/mL: Clostridium difficile; C. difficile 78 | Clostridium difficile; C. difficile 107B | Clostridium difficile; C. difficile 111F | Clostridium difficile; C. difficile 1153 | Clostridium difficile; C. difficile 2634 | Clostridium difficile; C. difficile 3424-5B | Clostridium difficile; C. difficile 3816 | Clostridium difficile; C. difficile 3950 | Clostridium difficile; C. difficile 6890 | Clostridium difficile; C. difficile 8484 | Clostridium difficile; C. difficile A-194 | Clostridium difficile; C. difficile A-195 | Clostridium difficile; C. difficile A-196 | Clostridium difficile; C. difficile A-279 | Clostridium difficile; C. difficile A-280 | Clostridium difficile; C. difficile A-281 | Clostridium difficile; C. difficile WAL-2112 | Clostridium difficile; C. difficile WAL-3657 | Clostridium difficile; C. difficile WAL-4268 | Fusobacterium symbiosum
16 µg/mL: Hemophilus influenzae; Table 9, strain S. Ford
8 µg/mL: Hemophilus influenzae; Table 17, 24 hours, Haemophilus influenzae Brun | [2]
1 µg/mL: [1]; Table 17, 24 hours, Streptococcus sp. Group D X66 | [1]; Table 18, 24 hours, Streptococcus sp. Group D 9901

Reference: patent US4559323A, “A41030 Antibiotics” (Eli Lilly and Company, priority 1984, dated 1985)
